Assay results as given in patent US6403054B1, “Ternary ligand complexes useful as radiopharmaceuticals” (Bristol-Myers Squibb Pharma Company, priority 1997, dated 2002).

Test: Canine imaging and biodistribution model
Conditions: for route of excretion: i.v. infusion, gamma camera images and biodistribution
Protocol: A canine imaging and biodistribution model was used to evaluate the radiopharmaceuticals of Examples 5 and 7.
Adult beagle dogs of either sex (9-13 kg) were anesthetized with pentobarbital sodium (35 mg/kg,i.v.) and ventilated with room air via an endotracheal tube (12 strokes/min, 25 ml/kg). For arterial pressure determination, the right femoral artery was cannulated with a saline-filled polyethylene catheter (PE-240) and connected to a Statham pressure transducer (P23ID; Oxnard, Calif.). Mean arterial blood pressure was determined via damping the pulsatile pressure signal. Heart rate was monitored using a cardiotachometer (Biotach, Grass Quincy, Mass.) triggered from a lead II electrocardiogram generated by limb leads. All parameters were monitored continuously on a polygraph recorder (model 7D Grass) at a paper speed of 10 mm/min or 25 mm/sec. The right femoral vein was cannulated (PE-240) for drug administration. A control blood sample was collected for hematology analysis on an MCA210 (APTT, PT), K1000 (cell number), and Chrono Log Aggregometer (collagen induced platelet aggregation). Blood samples were also collected immediately after infusion, 30, 60, and 120 minutes post infusion. Samples of blood were retained for blood clearance determination at control, immediately following infusion, 15, 30, 60, 90, and 120 minutes post infusion. Administration of test article was given no earlier than 20 minutes post surgery. The test article was administered as a 10 cc slow infusion over 5 minutes. Images were acquired by a gamma camera over 5 minutes and taken during infusion, 5, 15, 30, 60, 90, 120 minutes post infusion (Digital Dyna Camera, Picker International, Cleveland, Ohio). At the end of the protocol the animal was euthanized with an overdose of pentobarbital and a biodistribution performed. The samples collected for biodistribution (muscle, liver, kidney, bile, spleen, heart, lung thyroid, and urine) and the blood clearance samples were weighed and the amount of activity determined via a gamma well counter (LKB 1282, Wallac Inc).

[1] = at 120 min post-injection, beagle dogs

With “[^99mTc (HYNICamide) (tricine) (TPPTS)] [Example 7]” the route of excretion (anesthetized adult beagle dogs) was “predominantly renal”, the “clearance from the blood” value (anesthetized adult beagle dogs, slow i.v. infusion over 5 minutes, blood samples up to 120 minutes post infusion) was “rapid clearance” and the “portion of the radiopharmaceutical located in the bladder” value [1] was “vast majority”. The “radiopharmaceutical remaining in the blood, the muscle or other organs” value [1] was “very little remaining”.

In the case of “[^99mTc (HYPY) (tricine) (TFP)] [Example 5]”, the route of excretion (anesthetized adult beagle dogs) is reported as “predominantly hepatobiliary” and the “clearance from the blood” value (dog, in vivo, iv) is reported as “Rapid blood clearance”.
